Measurements reported in patent US20240025907A1, “QUINAZOLINE PAN-KRas INHIBITORS” (Mirati Therapeutics, Inc., priority 2022, published 2024).

Key:
Type in all cases: cell-based
[1] = tested on: KRas-mediated Phosphorylation of ERK in H460 cells; experiment: Cisbio HTRF pERK assay, H460 cells; details: single point at 100 nM; for Inhibition (HTRF % at 100 nM) of KRas-mediated Phosphorylation of ERK, H460: H460 cells, 0.1 µM; for inhibition at 0.1 µM: Homo sapiens, NCI-H460, H460 cells
[2] = tested on: KRas-mediated Phosphorylation of ERK in HCT116 cells; experiment: Cisbio HTRF pERK assay, HCT116 cells; details: single point at 100 nM; for Inhibition (HTRF % at 100 nM) of KRas-mediated Phosphorylation of ERK, HCT116: HCT116 cells, 0.1 µM; for inhibition at 0.1 µM: Homo sapiens, HCT-116, HCT116 cells
[3] = tested on: KRas-mediated Phosphorylation of ERK in A549 cells; experiment: Cisbio HTRF pERK assay, A549 cells; details: single point at 100 nM; for Inhibition (HTRF % at 100 nM) of KRas-mediated Phosphorylation of ERK, A549: A549 cells, 0.1 µM; for inhibition at 0.1 µM: Homo sapiens, A549, A549 cells
[4] = tested on: KRas-mediated Phosphorylation of ERK in H358 cells; experiment: Cisbio HTRF pERK assay, H358 cells; details: single point at 100 nM; for Inhibition (HTRF % at 100 nM) of KRas-mediated Phosphorylation of ERK, H358: H358 cells, 0.1 µM; for inhibition at 0.1 µM: Homo sapiens, NCI-H358, H358 cells

CCc1c(F)ccc2cc(O)cc(-c3c(F)cc4c(N5CCCn6nc(C(=O)N(C)C)cc6C5)nc(OC[C@@]56CCCN5C[C@H](F)C6)nc4c3F)c12 (atropisomer, axis not shown; (aS)) [Example 63, 5-((R)-7-(8-ethyl-7-fluoro-3-hydroxynaphthalen-1-yl)-6,8-difluoro-2-(((2R,7aS)-2-fluorohexahydro-1H-pyrrolizin-7a-yl)methoxy)quinazolin-4-yl)-N,N-dimethyl-5,6,7,8-tetrahydro-4H-pyrazolo[1,5-a][1,4]diazepine-2-carboxamide]
Inhibition (HTRF % at 100 nM) of KRas-mediated Phosphorylation of ERK, H460 [1]: 82%
Inhibition (HTRF % at 100 nM) of KRas-mediated Phosphorylation of ERK, HCT116 [2]: 61%

CCc1c(F)ccc2cc(O)cc(-c3c(F)cc4c(N5CCCn6nc(C(=O)N(C)C)cc6C5)nc(OC[C@@]56CCCN5C[C@H](F)C6)nc4c3F)c12 (atropisomer, axis not shown; (aS)) [Example 64, 5-((S)-7-(8-ethyl-7-fluoro-3-hydroxynaphthalen-1-yl)-6,8-difluoro-2-(((2R,7aS)-2-fluorohexahydro-1H-pyrrolizin-7a-yl)methoxy)quinazolin-4-yl)-N,N-dimethyl-5,6,7,8-tetrahydro-4H-pyrazolo[1,5-a][1,4]diazepine-2-carboxamide]
Inhibition (HTRF % at 100 nM) of KRas-mediated Phosphorylation of ERK, H460 [1]: 3%
Inhibition (HTRF % at 100 nM) of KRas-mediated Phosphorylation of ERK, HCT116 [2]: 14%

CCc1c(F)ccc2cc(O)cc(-c3c(F)cc4c(N5CCOC[C@@](C)(O)C5)nc(OC[C@@]56CCCN5C[C@H](F)C6)nc4c3F)c12 (atropisomer, axis not shown; (aS)) [Example 65, (S)-4-((S)-7-(8-ethyl-7-fluoro-3-hydroxynaphthalen-1-yl)-6,8-difluoro-2-(((2R,7aS)-2-fluorohexahydro-1H-pyrrolizin-7a-yl)methoxy)quinazolin-4-yl)-6-methyl-1,4-oxazepan-6-ol]
Inhibition (HTRF % at 100 nM) of KRas-mediated Phosphorylation of ERK, H460 [1]: 1%
Inhibition (HTRF % at 100 nM) of KRas-mediated Phosphorylation of ERK, HCT116 [2]: 16%

CCc1c(F)ccc2cc(O)cc(-c3c(F)cc4c(N5CCOC[C@@](C)(O)C5)nc(OC[C@@]56CCCN5C[C@H](F)C6)nc4c3F)c12 (atropisomer, axis not shown; (aS)) [Example 66, (S)-4-((R)-7-(8-ethyl-7-fluoro-3-hydroxynaphthalen-1-yl)-6,8-difluoro-2-(((2R,7aS)-2-fluorohexahydro-1H-pyrrolizin-7a-yl)methoxy)quinazolin-4-yl)-6-methyl-1,4-oxazepan-6-ol]
Inhibition (HTRF % at 100 nM) of KRas-mediated Phosphorylation of ERK, H460 [1]: 97%
Inhibition (HTRF % at 100 nM) of KRas-mediated Phosphorylation of ERK, HCT116 [2]: 97%

CCc1c(F)ccc2cc(O)cc(-c3c(F)cc4c(N5C[C@@H]6C[C@H](C5)[C@H](O)C6)nc(OC[C@@]56CCCN5C[C@H](F)C6)nc4c3F)c12 (atropisomer, axis not shown; (aS)) [Example 68, (1R,5R,6R)-3-((S)-7-(8-ethyl-7-fluoro-3-hydroxynaphthalen-1-yl)-6,8-difluoro-2-(((2R,7aS)-2-fluorohexahydro-1H-pyrrolizin-7a-yl)methoxy)quinazolin-4-yl)-3-azabicyclo[3.2.1]octan-6-ol]
Inhibition (HTRF % at 100 nM) of KRas-mediated Phosphorylation of ERK, H460 [1]: 14%
Inhibition (HTRF % at 100 nM) of KRas-mediated Phosphorylation of ERK, HCT116 [2]: 8%

CCc1c(F)ccc2cc(O)cc(-c3c(F)cc4c(N5CCC[C@@](C)(O)C5)nc(OC[C@@]56CCCN5C[C@H](F)C6)nc4c3F)c12 (atropisomer, axis not shown; (aS)) [Example 69, (R)-1-((R)-7-(8-ethyl-7-fluoro-3-hydroxynaphthalen-1-yl)-6,8-difluoro-2-(((2R,7aS)-2-fluorotetrahydro-1H-pyrrolizin-7a(5H)-yl)methoxy)quinazolin-4-yl)-3-methylpiperidin-3-ol]
Inhibition (HTRF % at 100 nM) of KRas-mediated Phosphorylation of ERK, A549 [3]: 84%
Inhibition (HTRF % at 100 nM) of KRas-mediated Phosphorylation of ERK, H358 [4]: 101%

CCc1c(F)ccc2cc(O)cc(-c3c(F)cc4c(N5CCC[C@@](C)(O)C5)nc(OC[C@@]56CCCN5C[C@H](F)C6)nc4c3F)c12 (atropisomer, axis not shown; (aS)) [Example 70, (R)-1-((S)-7-(8-ethyl-7-fluoro-3-hydroxynaphthalen-1-yl)-6,8-difluoro-2-(((2R,7aS)-2-fluorotetrahydro-1H-pyrrolizin-7a(5H)-yl)methoxy)quinazolin-4-yl)-3-methylpiperidin-3-ol]
Inhibition (HTRF % at 100 nM) of KRas-mediated Phosphorylation of ERK, A549 [3]: 6%
Inhibition (HTRF % at 100 nM) of KRas-mediated Phosphorylation of ERK, H358 [4]: 24%

CCc1c(F)ccc2cc(O)cc(-c3c(O)cc4c(N(C)C)nc(OC[C@@]56CCCN5C[C@H](F)C6)nc4c3F)c12 [Example 28, 4-(dimethylamino)-7-(8-ethyl-7-fluoro-3-hydroxynaphthalen-1-yl)-8-fluoro-2-(((2R,7aS)-2-fluorotetrahydro-1H-pyrrolizin-7a(5H)-yl)methoxy)quinazolin-6-ol]
inhibition at 0.1 µM [1]: 8%
inhibition at 0.1 µM [2]: 9%

CCc1c(F)ccc2cc(O)cc(-c3ccc4c(N5CCCC6(CNC(=O)N6)C5)nc(OCC5(CN(C)C)CC5)nc4c3F)c12 (centres unmarked) [Example 36, 7-(2-((1-((dimethylamino)methyl)cyclopropyl)methoxy)-7-(8-ethyl-7-fluoro-3-hydroxynaphthalen-1-yl)-8-fluoroquinazolin-4-yl)-1,3,7-triazaspiro[4.5]decan-2-one]
inhibition at 0.1 µM [1]: 25%
inhibition at 0.1 µM [2]: -22%

CCc1c(F)ccc2cc(O)cc(-c3ccc4c(N5CCCC6(CNS(=O)(=O)N6)C5)nc(OCC5(CN(C)C)CC5)nc4c3F)c12 (centres unmarked) [Example 37, 7-(2-((1-((dimethylamino)methyl)cyclopropyl)methoxy)-7-(8-ethyl-7-fluoro-3-hydroxynaphthalen-1-yl)-8-fluoroquinazolin-4-yl)-2-thia-1,3,7-triazaspiro[4.5]decane 2,2-dioxide]
inhibition at 0.1 µM [1]: 28%
inhibition at 0.1 µM [2]: 0%

CCc1c(F)ccc2cc(O)cc(-c3ccc4c(N5CCCC6(CC(=O)N6)C5)nc(OCC5(CN(C)C)CC5)nc4c3F)c12 (centres unmarked) [Example 38, 6-(2-((1-((dimethylamino)methyl)cyclopropyl)methoxy)-7-(8-ethyl-7-fluoro-3-hydroxynaphthalen-1-yl)-8-fluoroquinazolin-4-yl)-1,6-diazaspiro[3.5]nonan-2-one]
inhibition at 0.1 µM [3]: 9%
inhibition at 0.1 µM [4]: 16%

CCc1c(F)ccc2cc(O)cc(-c3ccc4c(N5CC6C(=O)NC(=O)C6C5)nc(OCC5(CN(C)C)CC5)nc4c3F)c12 (centres unmarked) [Example 39, 5-(2-((1-((dimethylamino)methyl)cyclopropyl)methoxy)-7-(8-ethyl-7-fluoro-3-hydroxynaphthalen-1-yl)-8-fluoroquinazolin-4-yl)tetrahydropyrrolo[3,4-c]pyrrole-1,3(2H,3aH)-dione]
inhibition at 0.1 µM [1]: 11%
inhibition at 0.1 µM [2]: 3%

CCc1c(F)ccc2cc(O)cc(-c3ccc4c(N5CCCn6nncc6C5)nc(OC[C@@]56CCCN5C[C@H](F)C6)nc4c3F)c12 [Example 44]
inhibition at 0.1 µM [3]: -9%
inhibition at 0.1 µM [4]: 3%

O=S1(=O)NCC2(CCCN(c3nc(OC[C@@]45CCCN4C[C@H](F)C5)nc4c(F)c(-c5cc(O)cc6ccc(F)c(Cl)c56)c(F)cc34)C2)N1 (stereo partly drawn) [Example 45, 7-(7-(8-chloro-7-fluoro-3-hydroxynaphthalen-1-yl)-6,8-difluoro-2-(((2R,7aS)-2-fluorotetrahydro-1H-pyrrolizin-7a(5H)-yl)methoxy)quinazolin-4-yl)-2-thia-1,3,7-triazaspiro[4.5]decane 2,2-dioxide]
inhibition at 0.1 µM [1]: 94%
inhibition at 0.1 µM [2]: 86%

CCc1c(F)ccc2cc(O)cc(-c3c(F)cc4c(N5CCCC6(CC(=O)N6)C5)nc(OCC5(CN(C)C)CC5)nc4c3F)c12 (centres unmarked) [Example 51, 6-(2-((1-((dimethylamino)methyl)cyclopropyl)methoxy)-7-(8-ethyl-7-fluoro-3-hydroxynaphthalen-1-yl)-6,8-difluoroquinazolin-4-yl)-1,6-diazaspiro[3.5]nonan-2-one]
inhibition at 0.1 µM [3]: 6%
inhibition at 0.1 µM [4]: 67%

CCc1c(F)ccc2cc(O)cc(-c3c(F)cc4c(N5CC6C(=O)NC(=O)C6C5)nc(OCC5(CN(C)C)CC5)nc4c3F)c12 (centres unmarked) [Example 52, 5-(2-((1-((dimethylamino)methyl)cyclopropyl)methoxy)-7-(8-ethly-7-fluoro-3-hydroxynaphthalen-1-yl)-6,8-difluoroquinazolin-4-yl)tetrahydropyrrolo[3,4-c]pyrrole-1,3(2H,3aH)-dione]
inhibition at 0.1 µM [3]: 33%
inhibition at 0.1 µM [4]: 6%

CCc1c(F)ccc2cc(O)cc(-c3c(F)cc4c(N5CCCC6(CC(O)C6)C5)nc(OCC5(CN(C)C)CC5)nc4c3F)c12 (centres unmarked) [Example 53, 6-(2-((1-((dimethylamino)methyl)cyclopropyl)methoxy)-7-(8-ethyl-7-fluoro-3-hydroxynaphthalen-1-yl)-6,8-difluoroquinazolin-4-yl)-6-azaspiro[3.5]nonan-2-ol]
inhibition at 0.1 µM [3]: 27%
inhibition at 0.1 µM [4]: 40%

CCc1c(F)ccc2cc(O)cc(-c3c(F)cc4c(N5CCCC6(C5)NC(=O)NC6=O)nc(OCC5(CN(C)C)CC5)nc4c3F)c12 (centres unmarked) [Example 54, 7-(2-((1-((dimethylamino)methyl)cyclopropyl)methoxy)-7-(8-ethyl-7-fluoro-3-hydroxynaphthalen-1-yl)-6,8-difluoroquinazolin-4-yl)-1,3,7-triazaspiro[4.5]decane-2,4-dione]
inhibition at 0.1 µM [3]: 61%
inhibition at 0.1 µM [4]: 100%

CCc1c(F)ccc2cc(O)cc(-c3c(F)cc4c(N5CCCn6nc(C(=O)N(C)C)cc6C5)nc(OCC5(CN(C)C)CC5)nc4c3F)c12 [Example 55, 5-(2-((1-((dimethylamino)methyl)cyclopropyl)methoxy)-7-(8-ethyl-7-fluoro-3-hydroxynaphthalen-1-yl)-6,8-difluoroquinazolin-4-yl)-N,N-dimethyl-5,6,7,8-tetrahydro-4H-pyrazolo[1,5-a][1,4]diazepine-2-carboxamide]
inhibition at 0.1 µM [3]: -13%
inhibition at 0.1 µM [4]: 2%
